From US10681909B2, “Herbicidal triazoles” (FMC Corporation, priority 2014, dated 2020)

How the values were obtained:
crabgrass, large = assay: Test C postemergence; type: in vivo, Digitaria sanguinalis
Procedure, shortened: (§1)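 Surfactant-containing, non-phytotoxic solvent formulations of each compound were applied either preemergence to seeds in a loam soil–sand blend or postemergence to plants 2 to 18 cm tall (1- to 4-leaf stage). Postemergence plants were grown in peat moss–vermiculite medium.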

foxtail, giant [1] = assay: Test A postemergence; type: in vivo, Setaria faberii; conditions: 0 to 100 scale (0 no effect, 100 complete control), approx. 10 d
Procedure, shortened: (§2)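 Pre- and postemergence spray tests in a loam soil–sand mixture: seeded soil received a directed spray, while established seedlings 2–10 cm high at the one- to two-leaf stage were treated over the top. Compounds were carried in non-phytotoxic solvent with surfactant.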

corn = assay: Test C postemergence; type: in vivo, Zea mays
Procedure, shortened: as §1

pigweed [2] = assay: Test A postemergence; type: in vivo, Amaranthus retroflexus; conditions: 0 to 100 scale (0 no effect, 100 complete control), approx. 10 d
Procedure, shortened: as §2

velvetleaf = assay: Test C postemergence; type: in vivo, Abutilon theophrasti
Procedure, shortened: as §1

soybean = assay: Test C postemergence; type: in vivo, Glycine max
Procedure, shortened: as §1

ragweed = assay: Test C postemergence; type: in vivo, Ambrosia elatior
Procedure, shortened: as §1

foxtail, giant [3] = assay: Test A preemergence; type: in vivo, Setaria faberii; conditions: 0 to 100 scale (0 no effect, 100 complete control)
Procedure, shortened: as §2

barnyardgrass = assay: Test C postemergence; type: in vivo, Echinochloa crus-galli
Procedure, shortened: as §1

ducksalad = assay: Test B flooded paddy test; type: in vivo, Heteranthera limosa; conditions: 250 g ai/ha, applied to paddy water at 2-leaf stage, visual rating after 13 to 15 d, scale 0 (no effect) to 100 (complete control)
Procedure, shortened: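 Pots were flooded to 3 cm above the soil at treatment, and compounds were applied directly into the paddy water. That depth was held throughout. After 13 to 15 d in a greenhouse, plants were rated visually against untreated controls.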

johnsongrass = assay: Test C postemergence; type: in vivo, Sorghum halepense
Procedure, shortened: as §1

pigweed [4] = assay: Test A preemergence; type: in vivo, Amaranthus retroflexus; conditions: 0 to 100 scale (0 no effect, 100 complete control)
Procedure, shortened: as §2

waterhemp = assay: Test C preemergence; type: in vivo, Amaranthus rudis; conditions: for Waterhemp plant response rating (0 to 100): Preemergence, visual rating after 13 to 15 d
Text: Seeds of plant species selected from blackgrass (Alopecurus myosuroides), ryegrass, Italian (Italian ryegrass, Lolium multiflorum), wheat (winter wheat, Triticum aestivum), galium (catchweed bedstraw, Galium aparine), corn (Zea mays), crabgrass, large (large crabgrass, Digitaria sanguinalis), foxtail, giant, (giant foxtail, Setaria faberii), johnsongrass (Sorghum halepense), lambsquarters (Chenopodium album), morningglory (Ipomoea coccinea), nutsedge, yellow (yellow nutsedge, Cyperus esculentus), pigweed (Amaranthus retroflexus), ragweed (common ragweed, Ambrosia elatior), soybean (Glycine max), barnyardgrass (Echinochloa crus-galli), oilseed rape (Brassica napus), waterhemp (common waterhemp, Amaranthus rudis), and velvetleaf (Abutilon theophrasti) were planted into a blend of loam soil and sand and treated preemergence with test chemicals formulated in a non-phytotoxic solvent mixture which included a surfactant. At the same time, plants selected from these crop and weed species and also chickweed (common chickweed, Stellaria media), oat, wild (wild oat, Avena fatua), and kochia (Kochia scoparia), were planted in pots containing Sunshine Redi-Earth® planting medium comprising spaghnum peat moss, vermiculite, starter nutrients and dolomitic limestone and treated with postemergence applications of test chemicals formulated in the same manner. Plants ranged in height from 2 to 18 cm (1- to 4-leaf stage) for postemergence treatments. […] A dash (-) response means no test result.

galium = assay: Test C postemergence; type: in vivo, Galium aparine
Procedure, shortened: as §1

FC(F)(F)COc1nc(-c2ccccc2)nn1Cc1ccnc(C(F)(F)F)c1 [Compound 24]
Plant response rating (scale of 0 to 100 where 0 is no effect and 100 is complete control) (crabgrass, large; 31 g ai/ha): 15
Plant response rating (scale of 0 to 100 where 0 is no effect and 100 is complete control) (crabgrass, large; 62 g ai/ha): 10
Plant response rating (scale of 0 to 100 where 0 is no effect and 100 is complete control) (crabgrass, large; 125 g ai/ha): 25
Plant response rating (scale of 0 to 100 where 0 is no effect and 100 is complete control) (crabgrass, large; 250 g ai/ha): 35
Plant response rating, Foxtail, Giant (foxtail, giant [1]; 125 g ai/ha): 70
Plant response rating, Foxtail, Giant (foxtail, giant [1]; 500 g ai/ha): 90
Plant response rating (scale of 0 to 100 where 0 is no effect and 100 is complete control) (corn; 31 g ai/ha): 20
Plant response rating (scale of 0 to 100 where 0 is no effect and 100 is complete control) (corn; 62 g ai/ha): 20
Plant response rating (scale of 0 to 100 where 0 is no effect and 100 is complete control) (corn; 125 g ai/ha): 25
Plant response rating (scale of 0 to 100 where 0 is no effect and 100 is complete control) (corn; 250 g ai/ha): 30
Plant response rating, Pigweed (pigweed [2]; 125 g ai/ha): 90
Plant response rating, Pigweed (pigweed [2]; 500 g ai/ha): 100
Plant response rating (scale of 0 to 100 where 0 is no effect and 100 is complete control) (velvetleaf; 31 g ai/ha): 60
Plant response rating (scale of 0 to 100 where 0 is no effect and 100 is complete control) (velvetleaf; 62 g ai/ha): 55
Plant response rating (scale of 0 to 100 where 0 is no effect and 100 is complete control) (velvetleaf; 125 g ai/ha): 60
Plant response rating (scale of 0 to 100 where 0 is no effect and 100 is complete control) (velvetleaf; 250 g ai/ha): 60
Plant response rating (scale of 0 to 100 where 0 is no effect and 100 is complete control) (soybean; 31 g ai/ha): 55
Plant response rating (scale of 0 to 100 where 0 is no effect and 100 is complete control) (soybean; 62 g ai/ha): 40
Plant response rating (scale of 0 to 100 where 0 is no effect and 100 is complete control) (soybean; 125 g ai/ha): 55
Plant response rating (scale of 0 to 100 where 0 is no effect and 100 is complete control) (soybean; 250 g ai/ha): 40
Plant response rating (scale of 0 to 100 where 0 is no effect and 100 is complete control) (ragweed; 31 g ai/ha): 65
Plant response rating (scale of 0 to 100 where 0 is no effect and 100 is complete control) (ragweed; 62 g ai/ha): 75
Plant response rating (scale of 0 to 100 where 0 is no effect and 100 is complete control) (ragweed; 125 g ai/ha): 75
Plant response rating (scale of 0 to 100 where 0 is no effect and 100 is complete control) (ragweed; 250 g ai/ha): 75
Plant response rating, Foxtail, Giant (foxtail, giant [3]; 125 g ai/ha): 100
Plant response rating, Foxtail, Giant (foxtail, giant [3]; 500 g ai/ha, approx. 10 d): 100
Plant response rating (scale of 0 to 100 where 0 is no effect and 100 is complete control) (barnyardgrass; 31 g ai/ha): 25
Plant response rating (scale of 0 to 100 where 0 is no effect and 100 is complete control) (barnyardgrass; 62 g ai/ha): 30
Plant response rating (scale of 0 to 100 where 0 is no effect and 100 is complete control) (barnyardgrass; 125 g ai/ha): 35
Plant response rating (scale of 0 to 100 where 0 is no effect and 100 is complete control) (barnyardgrass; 250 g ai/ha): 35
Plant response rating, Ducksalad, Flood (ducksalad): 30
Plant response rating (scale of 0 to 100 where 0 is no effect and 100 is complete control) (johnsongrass; 31 g ai/ha): 10
Plant response rating (scale of 0 to 100 where 0 is no effect and 100 is complete control) (johnsongrass; 62 g ai/ha): 20
Plant response rating (scale of 0 to 100 where 0 is no effect and 100 is complete control) (johnsongrass; 125 g ai/ha): 10
Plant response rating (scale of 0 to 100 where 0 is no effect and 100 is complete control) (johnsongrass; 250 g ai/ha): 20
Plant response rating, Pigweed (pigweed [4]; 125 g ai/ha): 100
Plant response rating, Pigweed (pigweed [4]; 500 g ai/ha, approx. 10 d): 100
Waterhemp plant response rating (0 to 100) (waterhemp; 31 g ai/ha): 100
Waterhemp plant response rating (0 to 100) (waterhemp; 62 g ai/ha): 100
Plant response rating (scale of 0 to 100 where 0 is no effect and 100 is complete control) (waterhemp; Waterhemp, preemergence, 250 g ai/ha): 100
Plant response rating (scale of 0 to 100 where 0 is no effect and 100 is complete control) (galium; 31 g ai/ha): 70
Plant response rating (scale of 0 to 100 where 0 is no effect and 100 is complete control) (galium; 62 g ai/ha): 80
Plant response rating (scale of 0 to 100 where 0 is no effect and 100 is complete control) (galium; 125 g ai/ha): 80
Plant response rating (scale of 0 to 100 where 0 is no effect and 100 is complete control) (galium; 250 g ai/ha): 95
